Among the data in ChEMBL document CHEMBL1208740, “beta-Secretase (BACE-1) inhibitory effect of biflavonoids” (Bioorg Med Chem Lett, 2010) are IC50 values, retold here.

In this test the target is Beta-secretase 1 (Homo sapiens, UniProt P56817). Put plainly: Inhibition of BACE1 after 60 mins by FRET assay.
Beta-secretase 1, sequence (P56817 whole entry): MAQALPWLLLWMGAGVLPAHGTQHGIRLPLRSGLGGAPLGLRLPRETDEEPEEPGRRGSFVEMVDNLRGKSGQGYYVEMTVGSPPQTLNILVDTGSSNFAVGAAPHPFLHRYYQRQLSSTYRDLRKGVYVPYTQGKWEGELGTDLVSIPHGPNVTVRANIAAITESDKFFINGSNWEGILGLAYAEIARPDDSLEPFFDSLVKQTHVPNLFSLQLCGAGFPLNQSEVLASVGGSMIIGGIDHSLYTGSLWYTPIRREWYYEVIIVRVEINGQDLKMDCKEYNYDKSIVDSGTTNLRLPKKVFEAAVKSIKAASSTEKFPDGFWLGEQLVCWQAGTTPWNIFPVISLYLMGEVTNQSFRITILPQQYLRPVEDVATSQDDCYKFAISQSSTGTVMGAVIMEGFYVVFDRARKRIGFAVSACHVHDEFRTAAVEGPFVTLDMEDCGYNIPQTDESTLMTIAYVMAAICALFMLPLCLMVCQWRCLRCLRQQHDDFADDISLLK
The term IC50 denotes the concentration that gives 50% inhibition. A lower IC50 goes with greater potency. The molecule `COc1cc(O)c2c(=O)cc(-c3ccc(O)c(-c4c(OC)cc(O)c5c(=O)cc(-c6ccc(O)cc6)oc45)c3)oc2c1` came in with an IC50 of 6.25 µM. This lies in the single-digit micromolar range.

Take `COc1ccc([C@@H]2CC(=O)c3c(cc(OC)c(C)c3O)O2)cc1-c1c(O)cc(O)c2c(=O)cc(-c3ccc(O)cc3)oc12`: it took 0.35 µM to reach half-maximal inhibition (IC50). Against the preceding molecule, the IC50 is about 18-fold lower.

`COc1cc(O)c2c(=O)cc(-c3ccc(OC)c(-c4c(OC)cc(O)c5c(=O)cc(-c6ccc(O)cc6)oc45)c3)oc2c1` displayed an IC50 of more than 10 µM.

Take `COc1ccc(-c2cc(=O)c3c(O)cc(O)cc3o2)cc1-c1c(OC)cc(O)c2c(=O)cc(-c3ccc(O)cc3)oc12`: the IC50 is more than 10 µM.

`COc1ccc(-c2cc(=O)c3c(O)cc(OC)c(-c4cc(-c5cc(=O)c6c(O)cc(OC)cc6o5)ccc4OC)c3o2)cc1` returned an IC50 of more than 10 µM.

Regarding `COc1ccc(-c2cc(=O)c3c(O)cc(OC)c(-c4cc(-c5cc(=O)c6c(O)cc(O)cc6o5)ccc4O)c3o2)cc1` [7'',4'''-dimethylamentoflavone], the concentration for half-maximal inhibition (IC50) was more than 10 µM.

`O=c1cc(-c2ccc(O)c(-c3c(O)cc(O)c4c(=O)cc(-c5ccc(O)cc5)oc34)c2)oc2cc(O)cc(O)c12` [AMENTOFLAVONE] yielded an IC50 of 1.54 µM.

Consider `COc1ccc(-c2cc(=O)c3c(O)cc(O)cc3o2)cc1-c1c(O)cc(O)c2c(=O)cc(-c3ccc(O)cc3)oc12` [BILOBETIN], for which it took 2.02 µM to reach half-maximal inhibition (IC50).

Molecule `O=c1cc(-c2ccc(O)cc2)oc2c(-c3c(O)cc(O)c4c(=O)cc(-c5ccc(O)cc5)oc34)c(O)cc(O)c12` [CUPRESSUFLAVONE] displayed an IC50 of more than 10 µM.

For `COc1cc(O)c2c(=O)cc(-c3ccc(OC)c(-c4c(O)cc(O)c5c(=O)cc(-c6ccc(O)cc6)oc45)c3)oc2c1` [GINKGETIN], the IC50 is 4.18 µM.

As to `COc1ccc(-c2cc(=O)c3c(O)cc(OC)c(-c4cc(-c5cc(=O)c6c(O)cc(OC)cc6o5)ccc4O)c3o2)cc1` [HEVEAFLAVONE], the IC50 is more than 10 µM.

Molecule `O=c1cc(-c2ccc(Oc3c(O)cc4oc(-c5ccc(O)cc5)cc(=O)c4c3O)cc2)oc2cc(O)cc(O)c12` [HINOKIFLAVONE] had an IC50 of more than 10 µM.

In turn, `COc1ccc(-c2cc(=O)c3c(O)cc(O)c(-c4cc(-c5cc(=O)c6c(O)cc(O)cc6o5)ccc4OC)c3o2)cc1` [ISOGINKGETIN] returned an IC50 of 3.01 µM.

In the case of `COc1ccc(-c2cc(=O)c3c(O)cc(OC)c(-c4cc(-c5cc(=O)c6c(O)cc(O)cc6o5)ccc4OC)c3o2)cc1` [KAYAFLAVONE], the IC50 is more than 10 µM.

For `COc1ccc(-c2cc(=O)c3c(O)cc(O)c(-c4cc(-c5cc(=O)c6c(O)cc(O)cc6o5)ccc4O)c3o2)cc1` [PODOCARPUSFLAVONE A], the IC50 worked out at 0.99 µM.

With `COc1ccc(-c2cc(=O)c3c(O)cc(O)c(-c4cc(-c5cc(=O)c6c(O)cc(OC)cc6o5)ccc4O)c3o2)cc1` [PODOCARPUSFLAVONE B], the IC50 turned out to be 4.21 µM.

For `O=c1cc(-c2ccc(O)c(-c3c(O)cc4oc(-c5ccc(O)cc5)cc(=O)c4c3O)c2)oc2cc(O)cc(O)c12` [ROBUSTAFLAVONE], the IC50 is more than 10 µM.

The molecule `COc1ccc(-c2cc(=O)c3c(O)cc(O)c(-c4cc(-c5cc(=O)c6c(O)cc(OC)cc6o5)ccc4OC)c3o2)cc1` [SCIADOPITISIN] gave an IC50 of more than 10 µM.

`COc1cc(O)c2c(=O)cc(-c3ccc(O)c(-c4c(O)cc(O)c5c(=O)cc(-c6ccc(O)cc6)oc45)c3)oc2c1` [SEQUOIAFLAVONE]: 1.4 µM corresponded to half-maximal inhibition (IC50). This counts as single-digit micromolar.

In turn, `COc1cc(O)c2c(=O)cc(-c3ccc(O)cc3)oc2c1-c1cc(-c2cc(=O)c3c(O)cc(O)cc3o2)ccc1O` [SOTETSUFLAVONE] showed an IC50 of 1.58 µM.
